Source: patent US7687643B2, “Process for preparing 3,3-dimethylindolines” (Amgen Inc., priority 2001, dated 2010)

The molecules below were run on Human Umbilical Vein Endothelial cells (VEGF-stimulated) (assay: HUVEC proliferation assay, VEGF-stimulated). Settings: VEGF 50 ng/mL, 72 h, CyQuant, read-out: inhibited VEGF-stimulated HUVEC proliferation at a level.
Assay type: cell-based
Experimental: Human Umbilical Vein Endothelial cells are purchased from Clonetics, Inc., as cryopreserved cells harvested from a pool of donors. These cells, at passage 1, are thawed and expanded in EBM-2 complete medium, until passage 2 or 3. The cells are trypsinized, washed in DMEM+10% FBS+antibiotics, and spun at 1000 rpm for 10 min. Prior to centrifugation of the cells, a small amount is collected for a cell count. After centrifugation, the medium is discarded, and the cells are resuspended in the appropriate volume of DMEM+10% FBS+antibiotics to achieve a concentration of 3×10^5 cells/mL. Another cell count is performed to confirm the cell concentration. The cells are diluted to 3×10^4 cells/mL in DMEM+10% FBS+antibiotics, and 100 μL of cells are added to a 96-well plate. The cells are incubated at 37° C. for 22 h.
Prior to the completion of the incubation period, compound dilutions are prepared. Five-point, five-fold serial dilutions are prepared in DMSO, at concentrations 400-fold greater than the final concentrations desired. 2.5 μL of each compound dilution are diluted further in a total of 1 mL DMEM+10% FBS+antibiotics (400× dilution). Medium containing 0.25% DMSO is also prepared for the 0 μM compound sample. At the 22-hour timepoint, the medium is removed from the cells, and 100 μL of each compound dilution is added. The cells are incubated at 37° C. for 2-3 h.
During the compound pre-incubation period, the growth factors are diluted to the appropriate concentrations. Solutions of DMEM+10% FBS+antibiotics, containing either VEGF or bFGF at the following concentrations: 50, 10, 2, 0.4, 0.08, and 0 ng/mL are prepared. For the compound-treated cells, solutions of VEGF at 550 ng/mL or bFGF at 220 ng/mL for 50 ng/mL or 20 ng/mL final concentrations, respectively, are prepared since 10 μL of each will be added to the cells (110 μL final volume). At the appropriate time after adding the compounds, the growth factors are added. VEGF is added to one set of plates, while bFGF is added to another set of plates. For the growth factor control curves, the media on wells B4-G6 of plates 1 and 2 are replaced with media containing VEGF or bFGF at the varying concentrations (50-0 ng/mL). The cells are incubated at 37° C. for an additional 72 h.
At the completion of the 72 h incubation period, the medium is removed, and the cells are washed twice with PBS. After the second wash with PBS, the plates are tapped gently to remove excess PBS, and the cells are placed at −70° C. for at least 30 min. The cells are thawed and analyzed using the CyQuant fluorescent dye (Molecular Probes C-7026), following the manufacturer's recommendations. The plates are read on a Victor/Wallac 1420 workstation at 485 nm/530 nm (excitation/emission). Raw data are collected and analyzed using a 4-parameter fit equation in XLFit. IC50 values are then determined.
With `O=C(Nc1ccc(Cl)c(Cl)c1)c1cccnc1NCc1ccncc1` [Example 4, N-(3,4-Dichlorophenyl){2-[(4-pyridylmethyl)amino](3-pyridyl)}-carboxamide] the IC50 was < 50 nM. `O=C(Nc1ccc(Cl)cc1)c1ncccc1NCc1ccc2ncccc2c1` [Example 7, N-(4-Chlorophenyl){3-[(6-quinolylmethyl)amino](2-pyridyl)}carboxamide] was tested, and the IC50 was < 50 nM. `O=C(Nc1ccc(Cl)cc1)c1cccnc1NCc1ccnc2ccccc12` [Example 20, N-(4-Chlorophenyl){2-[(4-quinolylmethyl)amino](3-pyridyl)}carboxamide] was tested, and the IC50 was < 50 nM. With `O=C(Nc1ccc(Cl)cc1)c1cccnc1NCc1ccc2ncccc2c1` [Example 21, N-(4-Chlorophenyl){2-[(6-quinolylmethyl)amino](3-pyridyl)}carboxamide] the IC50 was < 50 nM. For `CC(C)c1ccc(NC(=O)c2cccnc2NCc2ccncc2)cc1` [Example 25, N-(4-Isopropylphenyl){2-[(4-pyridylmethyl)amino](3-pyridyl)}carboxamide], the IC50 was < 50 nM. `CC(C)c1ccc(NC(=O)c2cc(F)cnc2NCc2ccncc2)cc1` [Example 67, {5-Fluoro-2-[(4-pyridylmethyl)amino](3-pyridyl)}-N-[4-(isopropyl)phenyl]carboxamide] was tested, and the IC50 was < 50 nM. `O=C(Nc1ccc(C(F)(F)C(F)(F)F)cc1)c1cccnc1NCc1ccncc1` [Example 78, N-[4-(1,1,2,2,2-Pentafluoroethyl)phenyl]{2-[(4-pyridylmethyl)amino](3-pyridyl)}carboxamide] was tested, and the IC50 was < 50 nM. For `O=C(Nc1cccc(C(F)(F)F)c1)c1cccnc1NCc1ccncc1` [Example 82, 2-[(Pyridin-4-ylmethyl)-amino]-N-(3-trifluoromethyl-phenyl)-nicotinamide], the IC50 was < 50 nM. In the case of `O=C(Nc1ccc2c(c1)N(CCN1CCCCC1)CC2)c1cccnc1NCc1ccncc1` [Example 130, N-[1-(2-Piperidylethyl)indolin-6-yl]{2-[(4-pyridylmethyl)amino](3-pyridyl)}carboxamide], the IC50 is reported as < 50 nM. For `CC1(C)CNc2cc(NC(=O)c3cccnc3NCc3ccncc3)ccc21` [Example 133, N-(3,3-Dimethylindolin-6-yl){2-[(4-pyridylmethyl)amino](3-pyridyl)}carboxamide], the IC50 was < 50 nM. With `CC(C)(C)c1ccc(NC(=O)c2cccnc2NCc2ccnc(Cl)c2)cc1` [Example 138, N-[4-(tert-Butyl)phenyl](2-{[(2-chloro(4-pyridyl))methyl]amino}(3-pyridyl))carboxamide] the IC50 was < 50 nM. With `COc1cc(CNc2ncccc2C(=O)Nc2ccc(C(C)C)cc2)ccn1` [Example 140, (2-{[(2-Methoxy(4-pyridyl))methyl]amino}(3-pyridyl))-N-[4-(methylethyl)phenyl]carboxamide] the IC50 was < 50 nM. With `CN(C)CCOCCOc1cc(CNc2ncccc2C(=O)Nc2ccc(C(C)(C)C)cc2)ccn1` [Example 151, (2-{[(2-{2-[2-(Dimethylamino)ethoxy]ethoxy}(4-pyridyl))methyl]amino}(3-pyridyl))-N-[4-(tert-butyl)phenyl]carboxamide] the IC50 was < 50 nM. `CC(C)(C)c1ccc(NC(=O)c2ccc(F)nc2NCc2ccncc2)cc1` [Example 154, N-[4-(tert-Butyl)phenyl]{6-fluoro-2-[(4-pyridylmethyl)amino](3-pyridyl)}carboxamide] was tested, and the IC50 was < 50 nM. With `CC(C)c1ccc(NC(=O)c2ccc(F)nc2NCc2ccncc2)cc1` [Example 155, {6-Fluoro-2-[(4-pyridylmethyl)amino](3-pyridyl)}-N-[4-(isopropyl)phenyl]carboxamide] the IC50 was < 50 nM. In the case of `O=C(Nc1cccc(C(F)(F)F)c1)c1ccc(F)nc1NCc1ccncc1` [Example 156, {6-Fluoro-2-[(4-pyridylmethyl)amino](3-pyridyl)}-N-[3-(trifluoromethyl)phenyl]carboxamide], the IC50 is reported as < 50 nM. With `O=C(Nc1ccc(Oc2ccccc2)cc1)c1cccnc1NCc1ccncc1` [Example 158, N-(4-Phenoxyphenyl){2-[(4-pyridylmethyl)amino](3-pyridyl)}carboxamide] the IC50 was < 50 nM. In the case of `O=C(Nc1ccc(-c2ccccc2)cc1)c1cccnc1NCc1ccncc1` [Example 159, N-(4-Biphenyl){2-[(4-pyridylmethyl)amino](3-pyridyl)}carboxamide], the IC50 is reported as < 50 nM. `O=C(Nc1ccc(C(F)(F)F)cc1)c1cccnc1NCc1ccncc1` [Example 165, {2-[(4-Pyridylmethyl)amino](3-pyridyl)}-N-[4-(trifluoromethyl)phenyl]carboxamide] was tested, and the IC50 was < 50 nM. In the case of `CC(C)c1ccc(NC(=O)c2cccnc2NCc2ccnc3ccccc23)cc1` [Example 167, N-[4-(Isopropyl)phenyl]{2-[(4-quinolylmethyl)amino](3-pyridyl)}carboxamide], the IC50 is reported as < 50 nM. In the case of `O=C(Nc1cccc(C(F)(F)F)c1)c1cccnc1NCc1ccc2ncccc2c1` [Example 169, {2-[(6-Quinolylmethyl)amino](3-pyridyl)}-N-[3-(trifluoromethyl)phenyl]carboxamide], the IC50 is reported as < 50 nM. For `CC(C)(C)c1ccc(NC(=O)c2cccnc2NCc2ccc3c(c2)CCO3)cc1` [Example 826, N-[4-(tert-Butyl)phenyl]{2-[(2,3-dihydrobenzo[b]furan-5-ylmethyl)amino](3-pyridyl)}carboxamide], the IC50 was < 50 nM. With `O=C(Nc1cccc(C(F)(F)F)c1)c1cccnc1NCc1ccc2c(c1)CCO2` [Example 827, {2-[(2,3-Dihydrobenzo[b]furan-5-ylmethyl)amino](3-pyridyl)}-N-[3-(trifluoromethyl)phenyl]carboxamide] the IC50 was < 50 nM. With `CCc1cc(CNc2ncccc2C(=O)Nc2ccc(C(C)(C)C)cc2)ccn1` [Example 873, N-(4-tert-Butyl-phenyl)-2-{[2-ethylpyridin-4-ylmethyl]-amino}-nicotinamide] the IC50 was < 50 nM. `CC(C)(C)c1ccc(NC(=O)c2cccnc2NCc2ccnc(OCCCN3CCOCC3)c2)cc1` [Example 904, N-(4-tert-Butyl-phenyl)-2-{[2-(3-morpholin-4-yl-propoxy)-pyridin-4-ylmethyl]-amino}-nicotinamide] was tested, and the IC50 was < 50 nM. For `CC(C)(C)c1ccc(NC(=O)c2cccnc2NCc2ccnc(OCCN3CCOCC3)c2)cc1` [Example 905, N-(4-tert-Butyl-phenyl)-2-{[2-(2-morpholin-4-yl-ethoxy)-pyridin-4-ylmethyl]-amino}-nicotinamide], the IC50 was < 50 nM. In the case of `CC(C)(C)OC(=O)N1CCC[C@@H]1COc1cc(NC(=O)c2cccnc2NCc2ccncc2)cc(C(F)(F)F)c1` [Example 916, (R) N-[3-(1-Boc-pyrrolidin-2-ylmethoxy)-5-trifluoromethyl-phenyl]-2-[(pyridin-4-ylmethyl)-amino]-nicotinamide], the IC50 is reported as < 50 nM. For `CN1CCC[C@@H]1COc1cc(NC(=O)c2cccnc2NCc2ccncc2)cc(C(F)(F)F)c1` [Example 917, (R) N-[3-(1-Methyl-pyrrolidin-2-ylmethoxy)-5-trifluoromethyl-phenyl]-2-[(pyridin-4-ylmethyl)-amino]-nicotinamide], the IC50 was < 50 nM. For `CN1CCC(CCCOc2cc(CNc3ncccc3C(=O)Nc3ccc(C(F)(F)F)cc3)ccn2)CC1` [Example 922, 2-({2-[3-(1-Methyl-piperidin-4-yl)-propoxy]-pyridin-4-ylmethyl}-amino)-N-(4-trifluoromethyl-phenyl)-nicotinamide], the IC50 was < 50 nM. `CN1CCC(CCCOc2cc(CNc3ncccc3C(=O)Nc3cccc(C(F)(F)F)c3)ccn2)CC1` [Example 923, 2-({2-[3-(1-Methyl-piperidin-4-yl)-propoxy]-pyridin-4-ylmethyl}-amino)-N-(3-trifluoromethyl-phenyl)-nicotinamide] was tested, and the IC50 was < 50 nM. For `CN1CCC(CCCOc2cc(CNc3ncccc3C(=O)Nc3ccc(C(C)(C)C)cc3)ccn2)CC1` [Example 924, 2-({2-[3-(1-Methyl-piperidin-4-yl)-propoxy]-pyridin-4-ylmethyl}-amino)-N-(4-tert-butyl-phenyl)-nicotinamide], the IC50 was < 50 nM. For `CN1CC(C)(C)Oc2ccc(NC(=O)c3cccnc3NCc3ccncc3)cc21` [Example 942, 2-[(Pyridin-4-ylmethyl)-amino]-N-(2,2,4-trimethyl-3,4-dihydro-2H-benzo[1,4]oxazin-6-yl)-nicotinamide], the IC50 was < 50 nM.
